Results published in patent US20200222497A1, “USE OF COMPOSITAE-TYPE CYCLIC PEPTIDE COMPOUND AS CGAS-STING SIGNALLING PATHWAY INHIBITOR” (CHINA PHARMACEUTICAL UNIVERSITY, priority 2017, published 2020).

Test system: HSV-1 induced IFNβ protein in mouse serum
Assay: IFNβ protein in serum of HSV-1 infected mice (ELISA)
Type: in vivo
Conditions: wild mouse, compound by tail vein injection three times, HSV-1 by tail vein, serum collected in 6 hours, FIG. 3
Description: Influence of the compositae type cyclopeptide compound Astin C (3) prepared in example 1 on expression of IFNβ protein in HSV-1 induced mouse serum.
The experimental principle: Expression of the IFNβ protein in the body is a mark event of innate immunity resisting infection reaction, the expressed IFNβ can activate the signal transduction channel of the interferon receptor (IFNR) to induce expression of cell factors and inflammatory factors such as interferon stimulated genes, and finally, the invading pathogenic microorganisms are eliminated by recruiting NK cells or further activating molecular mechanisms such as adaptive immune response. Therefore, after the DNA virus HSV-1 infects a mouse, the activating condition of the innate anti-infection immune response of the body can be reflected by detecting the expression quantity of IFN-β of mouse serum, so that influence of the compound on the innate anti-infection immune reaction of the body is evaluated.
The experimental method: (1) Establishment of an HSV-1 infected mouse model: A 6-8 week old wild mouse was taken; 100 μL of HSV-1, the titer of which is 1×10^7, was injected into a mouse body by way of tail vein injection; and serum was collected in 6 hours for a follow-up experiment. […]

CCC1NC(=O)C2C(Cl)C(Cl)CN2C(=O)C(CC)NC(=O)CC(c2ccccc2)NC(=O)C(CO)NC1=O (stereo not shown) [Astin C]
HSV-1 induced IFNβ content in the mouse serum: reduce the HSV-1 induced IFNβ content in the mouse serum obviously
